According to patent US20240390355A1, “IRHOM2 INHIBITORS AND USES THEREOF” (NEW YORK SOCIETY FOR THE RELIEF OF THE RUPTURED AND …, priority 2021, published 2024):
pIC50: −log10 of the molar value.

What was measured:
Assay type in all cases: cell-based
[1] = test system: TNFα release from THP-1 cells; test: Primary screen (Example 1a): LPS-stimulated TNFα release from THP-1 cells, HTRF; details: Homo sapiens, 100 ng/mL LPS, 3 h, normalised to 50 μM Batimastat, read-out: Primary Screen XC50 TNFα
Experimental: (§1) Two separate screens to identify novel small molecule inhibitors of iRhom2/ADAM17 activity were developed. […] Therefore, the primary screen for small molecule inhibitors of iRhom2/ADAM17 was a screen for inhibitors that blocked the release of TNFα from LPS-stimulated THP-1 human myeloid cells, a process that depends on iRhom2 and ADAM17. Since the release of TNFα from THP-1 cells can be blocked at many stages of the LPS/TLR4/iRhom2/ADAM17 pathway, a secondary screen was performed for another iRhom2/ADAM17 selective substrate, Kit-ligand 2 (KL-2) (Maretzky T et al. (July 2013), “iRhom2 controls the substrate selectivity of stimulated ADAM17-dependent ectodomain shedding”, PNAS 110(28): 11433-11438) in a different human cell type, human embryonic kidney cells (HEK 293).
THP-1 cells were plated in 384 or 1,536 wells and transferred on the ultra-high throughput screening (uHTS) platform Mark III, and TNFα shedding was initiated by LPS stimulation of THP-1 cells. The extent of released TNFα was detected with the corresponding HTRF antibodies labeled with europium cryptate (donor) and d2 (acceptor). The HTRF signal was generated by proximity of europium cryptate and d2. All detection reagents were purchased from Cisbio. TNFα detection was performed according to the manufacturer's protocol (Product Insert for Cisbio TNFα (h) Kit Part #62HTNFAPEG & 62HTNFAPEH;
7.5 nL compound and controls in DMSO [10 μM in assay; 0.25% DMSO in 3 [μL Assay] were dissolved in 2 μL cell suspension [2.4E6/mL; 4800 cells/well; culture w/o PenStrep], pre-incubated at 37° C., 5% CO2, for 15 min with 1 μL LPS [100 ng/mL in 3 μL assay]. The cells were incubated at 37° C., 5% CO2, for 3 h with 2 μL of the HTRF-mix [1:300 f.c.]. After an incubation at room temperature for 2 h or longer, the HTRF readout was performed. Then data evaluation for normalization against the 50 μM Batimastat control (=100% […]) was applied. As an additional control, 300 nM Batimastat was used to monitor performance of cells and assay sensitivity over time.

[2] = test system: KL2 release from HEK-293 cells; test: Secondary screen (Example 3a): PMA-stimulated KL2 release from HEK-293 cells, AP readout; details: Homo sapiens, HEK293, HEK-293 cells expressing KL2-AP, PMA 500 ng/mL, 2 h, read-out: Secondary Screen XC50 KL2
Experimental: as §1
(§2) First, expression plasmids for alkaline phosphatase (AP)-fused KL2 and TGFα were designed and generated through gene synthesis followed by subcloning into the pcDNA3.1(+)/Hygro expression vector. […] Subsequently, DNA amplifications were performed to obtain sufficient amounts of the expression vectors. The quality of DNA and gene sequences were confirmed through restriction digest and Sanger sequencing. In parallel, cell culture of THP-1 and HEK-293 cells was initiated. Master and working cell banks were prepared. Both cell lines were scaled up and transfected with the respective constructs by electroporation. During cell culturing, cell density and viability were monitored to ensure optimal conditions for the transfections. After PMA stimulation, AP-coupled KL2 or TGFα were detected by measurement of AP activity in the supernatant. […] In contrast, THP-1 cells turned out to be not a suitable transfection host resulting in a loss of cell viability after transfection. The decision was made to proceed with HEK-293 for both selectivity assays and to establish polyclonal cell lines stably expressing AP-coupled KL2 or TGFα.
(§3) After electroporation, cells were further cultured in presence of selection antibiotics, hygromycin B, to generate stably transfected polyclonal cell pools. For both assays, KL2 and TGFα shedding, the respective selected pool turned out to be suitable. Final assay conditions were determined for the selected pools. For all experiments, batimastat (30 μM) was used as positive control for full inhibition of KL2 or TGFα shedding.
(§4) 60 μL of cells (40,000/well) were added to a sterile 384-well plate. After incubation overnight at 37° C. (5% CO2), 50 μL medium were removed and 20 μL of prediluted compounds were added to the cells. After incubation for 15 min, 20 μL of PMA (500 ng/mL final conc.) were added. The cells were incubated for 2 h at 37° C. (5% CO2). Then, 20 μL of the supernatant was transferred to a fresh plate and 20 μL of pNPP (5 mM final conc.) was added. AP reaction was performed for 1 h at RT. The reaction was stopped by addition of 20 μL of NaOH (1 M final conc.) and the absorbance of pNP was measured at 405 nm.

[3] = test system: TGFα release from HEK-293 cells; test: Counter screen (Example 4a): PMA-stimulated TGFα release from HEK-293 cells, AP readout; details: Homo sapiens, HEK293, HEK-293 cells expressing TGFα-AP, PMA 100 ng/mL, 2 h, read-out: Counter Screen XC50 TGFα
Experimental: A tertiary counterscreen was also performed to monitor the release of TGFα, which is a substrate of iRhom1/ADAM17 and iRhom2/ADAM17, so its release should not be blocked by an iRhom2-selective inhibitor (Maretzky T et al. (July 2013), “iRhom2 controls the substrate selectivity of stimulated ADAM17-dependent ectodomain shedding”, PNAS 110(28): 11433-11438; and Li X et al. (May 2015), “iRhoms 1 and 2 are essential upstream regulators of ADAM17-dependent EGFR signaling”, PNAS 112(19): 6080-6085).
as §2, §3
as §4, with “of cells (20,000/well) were added” for “of cells (40,000/well) were added”, “of PMA (100 ng/mL final” for “of PMA (500 ng/mL final”, “was added. The AP reaction” for “was added. AP reaction”

Row | Structure (SMILES) | pIC50 [1] | pIC50 [2] | pIC50 [3]
1 | CC(C)c1nccc(-c2c(-c3ccccc3)ncn2CCc2c[nH]cn2)n1 [Compound 37] | 5.30 | < 3.89 | < 3.89
2 | COCC(=O)N1CCCc2ccc(NC(=O)Nc3ccc(F)cc3)cc21 [Compound 23] | 5.43 | < 3.89 | < 3.89
3 | O=C(c1c(F)cccc1F)N1CCN(Cc2ccc(Cl)s2)CC1 [Compound 7] | 4.85 | < 3.89 | < 3.89
4 | CCC1CN(C(=O)c2ccc3cc[nH]c3c2)CCC(=O)N1Cc1ccccc1 (stereo not drawn) [Compound 15] | > 6.10 | < 3.89 | < 3.89
5 | Cc1ccc(F)c(C(=O)N2CCc3nnc(CCc4ccccc4)n3CC2)c1F [Compound 17] | 4.82 | < 3.89 | < 3.89
6 | O=C(CCn1sc2ccccc2c1=O)Nc1ccc2cc[nH]c2c1 [Compound 33] | 5.29 | 5.22 | 4.62
7 | O=C(c1cccs1)N1CCC(Cc2ccccc2)CC1 [Compound 2] | > 6.10 | < 3.89 | < 3.89
8 | Cc1n[nH]c2c1C(c1ccccc1OC(F)F)C(C#N)=C(N)O2 (stereo not drawn) [Compound 31] | 4.46 | 4.49 | < 3.89
9 | Cc1ccn(CCCn2cnc(-c3ccccc3)c2-c2ccncc2)n1 [Compound 19] | 5.92 | < 3.89 | < 3.89
10 | CCC1CN(C(=O)c2ccc3c(c2)CCO3)CCC(=O)N1Cc1ccccc1 (stereo not drawn) [Compound 16] | 4.81 | < 3.89 | < 3.89
11 | O=C(c1ccccc1F)N1CCN(Cc2nc(C3CC3)cs2)CC1 [Compound 9] | 4.56 | < 3.89 | < 3.89
12 | CC(C)c1nccc(-c2c(-c3ccccc3)ncn2C[C@H]2CCCO2)n1 [Compound 41] | 4.94 | < 3.89 | < 3.89
13 | COc1ccccc1-c1c(-c2ccccc2C)ncn1C1CC(C)(C)N(C)C(C)(C)C1 [Compound 39] | 4.38 | < 3.89 | < 3.89
14 | C/C(=C\c1c(C)[nH]c2ccccc12)[N+](=O)[O-] [Compound 30] | 4.61 | 4.92 | < 3.89
15 | Cc1ccccc1C(=O)N1CCC(Cc2ccccc2)CC1 [Compound 1] | 4.99 | 5.59 | < 3.89
16 | Cc1ccccc1C(=O)N1CCN(Cc2cccc(Cl)c2)CC1 [Compound 5] | 5.85 | < 3.89 | < 3.89
17 | CCC(C)NC(=O)c1cc(C(=O)c2ccccc2C)c[nH]1 (stereo not drawn) [Compound 34] | 4.99 | < 3.89 | < 3.89
18 | COc1cccc(OC)c1C(=O)N1CCN(Cc2cccc(Br)c2)CC1 [Compound 11] | 4.61 | < 3.89 | < 3.89
19 | CC(=O)c1cccc(Nc2nc(NCC3CCCO3)c3ccccc3n2)c1 (stereo not drawn) [Compound 25] | 5.25 | 4.26 | < 3.89

Row | Structure (SMILES) | pIC50 [1] | pIC50 [2] | pIC50 [3]
20 | OC(Cc1ccccc1)Cn1cnc(-c2ccccc2)c1-c1cccnc1 (stereo not drawn) [Compound 38] | 3.97 | < 3.89 | < 3.89
21 | Cc1ccc(-n2ncc3c(NC4CCCCC4)ncnc32)c(C)c1 [Compound 29] | > 6.10 | < 3.89 | < 3.89
22 | CC(C)c1nccc(-c2c(-c3ccccc3)ncn2C[C@H]2CCCN2)n1 [Compound 40] | 4.68 | < 3.89 | < 3.89
23 | Cc1csc(CN2CCN(C(=O)c3c(F)cccc3Cl)CC2)n1 [Compound 8] | 5.72 | < 3.89 | < 3.89
24 | COc1cccc(OC)c1C(=O)N1CCN(Cc2cccc3ccccc23)CC1 [Compound 10] | 4.65 | 4.17 | < 3.89
25 | Nc1cccc(-c2cnc3ccc(NCc4cccs4)nn23)c1 [Compound 21] | 5.89 | 3.92 | < 3.89
26 | COc1ccc(Nc2nc(NCCCO)c3ccccc3n2)cc1 [Compound 24] | 5.96 | < 3.89 | < 3.89
27 | O=C(c1c[nH]c(-c2nnc3n2CCCCC3)c1)c1cc(F)ccc1O [Compound 35] | 4.55 | < 3.89 | < 3.89
28 | O=C(c1ccccc1F)N1CCN(Cc2cccc(Br)c2)CC1 [Compound 6] | 4.91 | < 3.89 | < 3.89
29 | Cc1nc[nH]c1-c1nccn1-c1ccc2c(c1)CCC2 [Compound 42] | 4.51 | < 3.89 | < 3.89
30 | COc1ccc(-c2cnc3sc(NCCCO)nn23)cc1OC [Compound 32] | 4.16 | 4.18 | < 3.89
31 | O=C(NN1CCN(Cc2ccccc2)CC1)C12CC3CC(CC(C3)C1)C2 [Compound 12] | 5.05 | < 3.89 | < 3.89
32 | Fc1ccc(Nc2nc3nonc3nc2Nc2ccc(F)cc2F)c(F)c1 [Compound 26] | 5.85 | 4.65 | 4.15
33 | CCC(Cn1cnc(-c2ccccc2)c1-c1ccncc1)N1CCOCC1 (stereo not drawn) [Compound 18] | 4.66 | < 3.89 | < 3.89
34 | O=C(c1c(Cl)cccc1Cl)N1CCN(Cc2ccc3c(c2)OCO3)CC1 [Compound 4] | 4.51 | < 3.89 | < 3.89
35 | Cc1ccccc1C(=O)N1CCN(Cc2ccccc2)CC1 [Compound 3] | 4.91 | < 3.89 | < 3.89
36 | Cc1ccccc1C(=O)N1CCN(c2ccc(NC(=O)c3cccnc3)cc2Cl)CC1 [Compound 14] | > 6.10 | 4.89 | < 3.89
37 | Cc1ccccc1C(=O)N1CCN(c2ccc(NC(=O)c3ccco3)cc2Cl)CC1 [Compound 13] | 5.46 | 4.74 | < 3.89
38 | c1ccc(-c2ncn(CCc3c[nH]cn3)c2-c2ccncc2)cc1 [Compound 36] | 4.72 | < 3.89 | < 3.89
